In the supplement of paper PMC5662764:
± gives the standard deviation of the averaged measurements.

What was measured:
Experiment in all cases: normalised growth rate inhibition (GR value) relative to DMSO control (GR (1 = untreated growth, 0 = cytostasis, <0 = cytotoxic)); higher = less growth inhibition
Conditions in all cases: 72 h
HS578T = test system: HS578T
Description: (§1)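 Breast cancer cell lines (BT-20, Hs 578T, MCF 10A, MCF7, MDA-MB-231, SK-BR-3) were plated in 384-well plates and treated 24 h later with drugs at six concentrations (0.04-10 µM). Viable cells were counted by Hoechst/dead-cell-stain imaging at 0 and 72 h. Counts were normalised to DMSO controls on the same plate to give the relative cell count and the growth-rate inhibition (GR) value; technical plate triplicates were averaged for each biological replicate.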

MCF10A = test system: MCF10A
Description: as §1

MCF7 = test system: MCF7
Description: as §1

MDAMB231 = test system: MDAMB231
Description: as §1

SKBR3 = test system: SKBR3
Description: as §1

BT20 = test system: BT20
Description: as §1

Row | Compound | normalised growth rate inhibition (HS578T; 0.04 µM) | normalised growth rate inhibition (HS578T; 0.12 µM) | normalised growth rate inhibition (HS578T; 0.37 µM) | normalised growth rate inhibition (HS578T; 1.11 µM) | normalised growth rate inhibition (HS578T; 3.33 µM) | normalised growth rate inhibition (HS578T; 10 µM) | normalised growth rate inhibition (MCF10A; 0.04 µM) | normalised growth rate inhibition (MCF10A; 0.12 µM) | normalised growth rate inhibition (MCF10A; 0.37 µM) | normalised growth rate inhibition (MCF10A; 1.11 µM) | normalised growth rate inhibition (MCF10A; 3.33 µM) | normalised growth rate inhibition (MCF10A; 10 µM) | normalised growth rate inhibition (MCF7; 0.04 µM) | normalised growth rate inhibition (MCF7; 0.12 µM) | normalised growth rate inhibition (MCF7; 0.37 µM) | normalised growth rate inhibition (MCF7; 1.11 µM) | normalised growth rate inhibition (MCF7; 3.33 µM) | normalised growth rate inhibition (MCF7; 10 µM) | normalised growth rate inhibition (MDAMB231; 0.04 µM) | normalised growth rate inhibition (MDAMB231; 0.12 µM) | normalised growth rate inhibition (MDAMB231; 0.37 µM) | normalised growth rate inhibition (MDAMB231; 1.11 µM) | normalised growth rate inhibition (MDAMB231; 3.33 µM) | normalised growth rate inhibition (MDAMB231; 10 µM) | normalised growth rate inhibition (SKBR3; 0.04 µM) | normalised growth rate inhibition (SKBR3; 0.12 µM) | normalised growth rate inhibition (SKBR3; 0.37 µM) | normalised growth rate inhibition (SKBR3; 1.11 µM) | normalised growth rate inhibition (SKBR3; 3.33 µM) | normalised growth rate inhibition (SKBR3; 10 µM) | normalised growth rate inhibition (BT20; 0.04 µM) | normalised growth rate inhibition (BT20; 0.12 µM) | normalised growth rate inhibition (BT20; 0.37 µM) | normalised growth rate inhibition (BT20; 1.11 µM) | normalised growth rate inhibition (BT20; 3.33 µM) | normalised growth rate inhibition (BT20; 10 µM)
1 | O=c1[nH]c2ccccc2n1C1CCN(Cc2ccc(-c3[nH]c4cc5ncnc5cc4nc3-c3ccccc3)cc2)CC1 [AKT-inhibitor-1-2] | 0.9753 ± 0.0043 | 0.9556 ± 0.0094 | 0.933 ± 0.0086 | 0.857 ± 0.029 | 0.875 ± 0.024 | 0.388 ± 0.099 | 0.994 ± 0.01 | 0.979 ± 0.01 | 0.9721 ± 0.0092 | 0.922 ± 0.048 | 0.945 ± 0.047 | 0.605 ± 0.15 | 0.749 ± 0.023 | 0.741 ± 0.034 | 0.701 ± 0.1 | 0.471 ± 0.066 | 0.436 ± 0.11 | -0.0151 ± 0.17 | 0.874 ± 0.091 | 0.889 ± 0.086 | 0.918 ± 0.046 | 0.835 ± 0.083 | 0.888 ± 0.023 | 0.56 ± 0.11 | 0.675 ± 0.14 | 0.759 ± 0.051 | 0.766 ± 0.021 | 0.587 ± 0.091 | 0.599 ± 0.027 | 0.299 ± 0.043 | 0.831 ± 0.027 | 0.851 ± 0.026 | 0.921 ± 0.023 | 0.849 ± 0.015 | 0.872 ± 0.026 | 0.291 ± 0.052
2 | O=C(NC1CCNCC1)c1n[nH]cc1NC(=O)c1c(Cl)cccc1Cl [AT-7519] | 0.899 ± 0.1 | 0.564 ± 0.38 | -0.102 ± 0.11 | -0.14 ± 0.099 | -0.242 ± 0.12 | -0.295 ± 0.11 | 0.969 ± 0.028 | 0.88 ± 0.071 | 0.222 ± 0.39 | -0.156 ± 0.23 | -0.256 ± 0.28 | -0.296 ± 0.25 | 0.69 ± 0.41 | 0.0423 ± 0.33 | -0.267 ± 0.063 | -0.302 ± 0.099 | -0.33 ± 0.14 | -0.404 ± 0.13 | 0.732 ± 0.19 | 0.291 ± 0.38 | -0.171 ± 0.22 | -0.291 ± 0.22 | -0.355 ± 0.2 | -0.388 ± 0.19 | 0.717 ± 0.24 | 0.14 ± 0.11 | -0.104 ± 0.074 | -0.284 ± 0.15 | -0.41 ± 0.18 | -0.523 ± 0.16 | 0.891 ± 0.088 | 0.695 ± 0.31 | 0.207 ± 0.43 | -0.207 ± 0.12 | -0.361 ± 0.21 | -0.422 ± 0.18
3 | Cc1ncc(-c2ccnc(Nc3ccc(S(C)(=O)=O)cc3)n2)n1C(C)C [AZD-5438] | 0.908 ± 0.037 | 0.679 ± 0.063 | 0.274 ± 0.069 | -0.0129 ± 0.054 | -0.104 ± 0.095 | -0.186 ± 0.093 | 0.958 ± 0.02 | 0.797 ± 0.087 | 0.42 ± 0.18 | -0.0201 ± 0.058 | -0.199 ± 0.24 | -0.188 ± 0.19 | 0.798 ± 0.13 | 0.373 ± 0.11 | 0.0311 ± 0.046 | -0.106 ± 0.11 | -0.277 ± 0.036 | -0.438 ± 0.14 | 0.849 ± 0.1 | 0.633 ± 0.069 | 0.31 ± 0.071 | -0.0453 ± 0.074 | -0.205 ± 0.15 | -0.308 ± 0.18 | 0.891 ± 0.036 | 0.628 ± 0.013 | 0.292 ± 0.086 | -0.137 ± 0.12 | -0.28 ± 0.15 | -0.453 ± 0.2 | 0.884 ± 0.086 | 0.655 ± 0.14 | 0.354 ± 0.2 | 0.0675 ± 0.11 | -0.117 ± 0.1 | -0.372 ± 0.15
4 | Cc1cc([C@@H](C)Nc2ccccc2C(=O)O)c2nc(N3CCOCC3)cc(=O)n2c1 [AZD-6482] | 0.929 ± 0.03 | 0.89 ± 0.023 | 0.855 ± 0.034 | 0.768 ± 0.039 | 0.678 ± 0.092 | 0.337 ± 0.16 | 0.993 ± 0.019 | 0.952 ± 0.056 | 0.938 ± 0.055 | 0.891 ± 0.094 | 0.842 ± 0.14 | 0.36 ± 0.24 | 1.05 ± 0.078 | 0.954 ± 0.065 | 0.988 ± 0.066 | 0.906 ± 0.029 | 0.673 ± 0.078 | 0.0729 ± 0.13 | 0.932 ± 0.013 | 0.888 ± 0.0098 | 0.867 ± 0.023 | 0.752 ± 0.083 | 0.648 ± 0.11 | 0.446 ± 0.21 | 0.988 ± 0.013 | 0.915 ± 0.063 | 1 ± 0.077 | 0.87 ± 0.072 | 0.404 ± 0.078 | -0.107 ± 0.21 | 0.974 ± 0.05 | 0.895 ± 0.079 | 0.758 ± 0.059 | 0.52 ± 0.078 | 0.245 ± 0.08 | -0.0918 ± 0.069
5 | NC(=O)Nc1cc(-c2cccc(F)c2)sc1C(=O)N[C@H]1CCCNC1 [AZD-7762] | 0.41 ± 0.2 | 0.0861 ± 0.15 | -0.0107 ± 0.13 | -0.108 ± 0.14 | -0.187 ± 0.13 | -0.289 ± 0.13 | 0.878 ± 0.077 | 0.749 ± 0.11 | 0.647 ± 0.1 | 0.43 ± 0.097 | 0.188 ± 0.052 | -0.177 ± 0.082 | 0.27 ± 0.063 | 0.176 ± 0.061 | 0.0985 ± 0.048 | -0.000407 ± 0.031 | -0.103 ± 0.015 | -0.276 ± 0.042 | 0.7 ± 0.19 | 0.387 ± 0.1 | 0.196 ± 0.21 | -0.0971 ± 0.13 | -0.246 ± 0.14 | -0.29 ± 0.16 | 0.0117 ± 0.2 | -0.11 ± 0.19 | -0.168 ± 0.17 | -0.273 ± 0.16 | -0.301 ± 0.14 | -0.341 ± 0.13 | 1.05 ± 0.054 | 0.874 ± 0.14 | 0.634 ± 0.15 | 0.262 ± 0.15 | -0.0616 ± 0.12 | -0.418 ± 0.099
6 | COc1ccc(-c2ccc3c(N4CCOC[C@@H]4C)nc(N4CCOC[C@@H]4C)nc3n2)cc1CO [AZD-8055] | 0.255 ± 0.041 | 0.187 ± 0.031 | 0.176 ± 0.022 | 0.16 ± 0.023 | 0.111 ± 0.073 | -0.22 ± 0.29 | 0.494 ± 0.1 | 0.296 ± 0.088 | 0.205 ± 0.048 | 0.175 ± 0.027 | 0.146 ± 0.012 | -0.102 ± 0.39 | 0.0296 ± 0.035 | -0.00352 ± 0.044 | -0.0152 ± 0.064 | -0.00932 ± 0.072 | -0.0344 ± 0.067 | -0.216 ± 0.23 | 0.484 ± 0.046 | 0.317 ± 0.048 | 0.245 ± 0.0043 | 0.224 ± 0.015 | 0.146 ± 0.099 | -0.0657 ± 0.25 | -0.0402 ± 0.13 | -0.0898 ± 0.17 | -0.0997 ± 0.15 | -0.12 ± 0.1 | -0.137 ± 0.12 | -0.363 ± 0.15 | 0.3 ± 0.14 | 0.179 ± 0.12 | 0.0816 ± 0.063 | 0.0556 ± 0.071 | -0.00646 ± 0.086 | -0.306 ± 0.36
